Test results published in US20260083704A1, “LXR MODULATORS WITH BICYCLIC CORE MOIETY FOR TREATING DYSLIPIDEMIAS” (OrsoBio, Inc., priority 2022, published 2026).

Legend:
[1] = target: T1, GST-LXRβ ligand-binding domain (Homo sapiens, UniProt P55055); assay: TR-FRETβ activity assay (NCoA3 coactivator peptide recruitment); format: biochemical; details: 1 μM 24(S)-25-epoxycholesterol prestimulation
T1 construct: amino acids 156-461; NP009052; made in house; host or cells: E. coli
T1 sequence (P55055 156-460 limits assumed): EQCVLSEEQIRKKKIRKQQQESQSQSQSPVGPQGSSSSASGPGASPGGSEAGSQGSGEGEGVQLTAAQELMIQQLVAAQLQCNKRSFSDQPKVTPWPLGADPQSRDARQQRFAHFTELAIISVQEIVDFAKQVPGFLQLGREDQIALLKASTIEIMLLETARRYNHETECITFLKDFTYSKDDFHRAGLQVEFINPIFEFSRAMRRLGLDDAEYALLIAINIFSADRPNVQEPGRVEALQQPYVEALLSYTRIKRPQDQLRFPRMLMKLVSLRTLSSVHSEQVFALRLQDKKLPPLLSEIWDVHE
Method: Recombinant GST-LXRβ ligand-binding domain (LBD; amino acids 156-461; NP009052; SEQ ID NO:4) was expressed in E. coli and purified via gluthatione-sepharose affinity chromatography. N-terminally biotinylated NCoA3 coactivator peptide (SEQ ID NO:7) was chemically synthesized (Eurogentec). Assays were done in 384 well format (final assay volume of 25 μL/well) in a Tris/HCl buffer (pH 6.8) containing KCl, bovine serum albumin, Triton-X-100 and 1 μM 24(S)-25-epoxycholesterol as LXR-prestimulating agonist. Assay buffer was provided and test articles (potential LXR inverse agonists) were titrated to yield final assay concentrations of 50 μM, 16.7 μM, 5.6 μM, 1.9 μM, 0.6 μM, 0.2 μM, 0.07 μM, 0.02 μM, 0.007 μM, 0.002 μM with one vehicle control. Finally, a detection mix was added containing anti GST-Tb cryptate (CisBio; 610SAXLB) and Streptavidin-XL665 (CisBio; 610SAXLB) as fluorescent donor and acceptor, respectively, as well as the coactivator peptide and LXRβ-LBD protein (SEQ ID NO:4). The reaction was mixed thoroughly, equilibrated for 1 h at 4° C. and vicinity of LXRβ and coactivator peptide was detected by measurement of fluorescence in a VictorX4 multiplate reader (PerkinElmer Life Science) using 340 nm as excitation and 615 and 665 nm as emission wavelengths. Assays were performed in triplicates.
240 mM KCl, 1 μg/μL BSA, 0.002% Triton-X-100, […] anti GST-Tb cryptate, 2.5 ng/μL Streptavidin-XL665, coactivator peptide (400 nM), LXRβ protein (530 μg/mL, i.e. 76 nM).

LXRβ = target: T2, LXRβ (Homo sapiens, UniProt P55055); assay: LXR Gal4 reporter transient transfection assay (mammalian two-hybrid, HEK293), LXRβ; format: cell-based; design: LXRβ (amino acids 156-461); expressed in transfected cells; host or cells: HEK293; details: full length (FL) LXRβ, HEK293; read-out: FL-M2H Gal4β
T2 sequence (P55055 1-460): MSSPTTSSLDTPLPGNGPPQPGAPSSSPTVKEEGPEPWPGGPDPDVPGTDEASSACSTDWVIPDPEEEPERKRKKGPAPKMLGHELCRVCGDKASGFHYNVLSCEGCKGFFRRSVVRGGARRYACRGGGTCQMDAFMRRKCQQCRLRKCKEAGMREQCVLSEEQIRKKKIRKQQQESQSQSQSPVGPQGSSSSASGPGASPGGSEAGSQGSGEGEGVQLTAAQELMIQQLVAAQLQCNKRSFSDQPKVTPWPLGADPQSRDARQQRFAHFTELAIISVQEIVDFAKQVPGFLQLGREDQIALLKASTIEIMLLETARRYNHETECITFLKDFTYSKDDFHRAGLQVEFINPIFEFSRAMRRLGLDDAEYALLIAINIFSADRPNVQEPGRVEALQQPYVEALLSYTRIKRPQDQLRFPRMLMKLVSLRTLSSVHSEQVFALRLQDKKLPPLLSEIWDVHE
Method: LXRα and LXRβ activity status was determined via detection of interaction with coactivator and corepressor proteins in mammalian two-hybrid experiments (M2H). For this, via transient transfection the full length (FL) proteins of LXRα (amino acids 1-447; NP005684; SEQ ID NO:1) or LXRβ-(amino acids 1-461; NP009052; SEQ ID NO:2) or the ligand-binding domains (LBD) of LXRα (amino acids 155-447 SEQ ID NO:3) or LXRβ (amino acids 156-461; SEQ ID NO:4) were expressed from pCMV-AD (Stratagene) as fusions to the transcriptional activation domain of NFkB. As cofactors, domains of either the steroid receptor coactivator 1 (SRC1; amino acids 552-887; SEQ ID NO:5) or of the corepressor NCoR (amino acids 1906-2312; NP006302; SEQ ID NO:6) were expressed as fusions to the DNA binding domain of the yeast transcription factor GAL4 (from pCMV-BD; Stratagene). Interaction was monitored via activation of a coexpressed Firefly Luciferase Reporter gene under control of a promoter containing repetitive GAL4 response elements (vector pFRLuc; Stratagene). Transfection efficiency was controlled via cotransfection of constitutively active pRL-CMV Renilla reniformis luciferase reporter (Promega). HEK293 cells were grown in minimum essential medium (MEM) with 2 mM L-glutamine and Earle's balanced salt solution supplemented with 8.3% fetal bovine serum, 0.1 mM non-essential amino acids, 1 mM sodium pyruvate, at 37° C. in 5% CO2. 3.5×10^4 cells/well were plated in 96-well cell culture plates in growth medium supplemented with 8.3% fetal bovine serum for 16-20 h to ˜90% confluency. For transfection, medium was taken off and LXR and cofactor expressing plasmids as well as the reporter plasmids are added in 30 μL OPTIMEM/well including polyethylene-imine (PEI) as vehicle. Typical amounts of plasmids transfected/well: pCMV-AD-LXR (5 ng), pCMV-BD-cofactor (5 ng), pFR-Luc (100 ng), pRL-CMV (0.5 ng). Compound stocks were prepared in DMSO, prediluted in MEM to a total volume of 120 μL, and added 4 h after addition of the transfection mixture (final vehicle concentration not exceeding 0.2%). Cells were incubated for additional 16 h, lysed for 10 min in 1×Passive Lysis Buffer (Promega) and Firefly and Renilla luciferase activities were measured sequentially in the same cell extract using buffers containing D-luciferine and coelenterazine, respectively. Measurements of luminescence were done in a BMG-luminometer.
The potencies of Compound 21/3 and its analog, Compound pre-6/3, against LXRα and LXRβ were evaluated in biochemical binding assays, cellular mammalian two-hybrid (M2H) interaction assays evaluating nuclear receptor co-repressor (NCOR) recruitment, and cellular reporter assays evaluating transcriptional activity (Table 5).

SMILES	EC50 [1]	EC50 (LXRβ)
N#Cc1sccc1-c1c(-c2cccc(-c3ccc(C(=O)NCCS(=O)(=O)O)cc3Cl)c2)n(S(=O)(=O)c2ccc(C(F)F)cc2)c2ccc(F)cc12 [10/3]	< 100 nM	< 100 nM
O=C(O)c1ccc(-c2cccc(-c3c(-c4cn[nH]c4C(F)(F)F)c4cc(F)ccc4n3S(=O)(=O)c3ccc(C(F)F)cc3)c2)c(Cl)c1 [11/25]	100 to 1000 nM	< 100 nM
Cc1ccc(S(=O)(=O)n2c(-c3cccc(N4CCC(C(=O)O)CC4)c3)c(-c3ccsc3C#N)c3cc(F)ccc32)cc1 [3/38]	100 to 1000 nM	< 100 nM
Cc1ccc(S(=O)(=O)n2c(-c3cccc(-c4ccc(C(=O)O)cc4Cl)c3)c(-c3c(C)cccc3C#N)c3cc(F)ccc32)cc1 [11/6]	< 100 nM	< 100 nM
O=C(O)c1ccc(-c2cccc(-c3c(-c4ccccc4C4COC4)c4cc(F)ccc4n3S(=O)(=O)c3ccc(Cl)cc3)c2)c(Cl)c1 [3/56]	< 100 nM	< 100 nM
N#Cc1cncc(C#N)c1-c1c(-c2cccc(-c3ccc(C(=O)O)cc3Cl)c2)n(S(=O)(=O)c2ccc(C(F)F)cc2)c2ccc(F)cc12 [11/67]	100 to 1000 nM	< 100 nM
Cc1ccc(S(=O)(=O)n2c(-c3cccc(-c4ccc(C(C)(C)N)cc4Cl)c3)c(-c3ccsc3C#N)c3cc(F)ccc32)cc1 [2/2]	100 to 1000 nM	100 to 1000 nM
Cc1ccc(S(=O)(=O)n2c(-c3cccc(N4CC(C(=O)NC(C)(C)C(=O)O)C4)c3)c(-c3ccsc3C#N)c3cc(F)ccc32)cc1 [3/52]	100 to 1000 nM	100 to 1000 nM
Cc1ccc(S(=O)(=O)n2c(-c3cccc(C4(C)CC4C(=O)O)c3)c(-c3ccsc3C#N)c3cc(F)ccc32)cc1 (stereo not drawn) [3/2]	1000 to 10000 nM	< 100 nM
N#Cc1ccccc1-c1c(-c2cccc(-c3ccc(C(=O)O)c4c3OCO4)c2)n(S(=O)(=O)c2ccc(C(F)F)cc2)c2ccc(F)cc12 [11/28]	< 100 nM	< 100 nM
N#Cc1cccc(F)c1-c1c(-c2cccc(-c3ccc(C(=O)O)cc3Cl)c2)n(S(=O)(=O)c2ccc(C(F)F)cc2)c2ccc(F)cc12 [11/34]	< 100 nM	< 100 nM
CC1(C)CCN(S(=O)(=O)n2c(-c3cccc(-c4ccc(C(=O)O)cc4)c3)c(-c3ccsc3C#N)c3ccccc32)CC1 [3/66]	1000 to 10000 nM	100 to 1000 nM
CC1CCN(S(=O)(=O)n2c(-c3cccc(-c4ccc(C(=O)O)cc4Cl)c3)c(-c3ccsc3C#N)c3cc(F)ccc32)CC1 [3/21]	100 to 1000 nM	< 100 nM
Cc1cccc(C)c1-c1c(-c2cccc(-c3ccc(C(=O)O)cc3Cl)c2)n(S(=O)(=O)c2ccc(C(F)F)cc2)c2ccc(F)cc12 [11/14]	< 100 nM	< 100 nM
CC1CCN(S(=O)(=O)n2c(-c3cccc(N4CC(C(=O)O)C4)c3)c(-c3ccsc3C#N)c3cc(F)ccc32)CC1 [3/36]	1000 to 10000 nM	100 to 1000 nM
N#Cc1sccc1-c1c(-c2cccc(N3CC(C(=O)O)C3)c2)n(S(=O)(=O)c2ccc3c(c2)CCC3)c2ccc(F)cc12 [3/12]	100 to 1000 nM	< 100 nM
N#Cc1cccc(C#N)c1-c1c(-c2cccc(-c3c(F)c(F)c(C(=O)O)c(F)c3F)c2)n(S(=O)(=O)c2ccc(C(F)F)cc2)c2ccc(F)cc12 [11/54]	< 100 nM	< 100 nM
N#Cc1sccc1-c1c(-c2cccc(N3CC(C(=O)O)C3)c2)n(S(=O)(=O)c2ccc(C(F)(F)F)cc2)c2ccc(F)cc12 [3/34]	100 to 1000 nM	< 100 nM
Cc1ccc(S(=O)(=O)n2c(-c3cccc(-c4ccc(C(=O)O)c(F)c4Cl)c3)c(-c3ccsc3C#N)c3cc(F)ccc32)cc1 [12/3]	100 to 1000 nM	< 100 nM
Cc1ccc(S(=O)(=O)n2c(-c3cccc(N4CC(C(=O)O)C4)c3)c(-c3sccc3C#N)c3cc(F)ccc32)cc1 [3/25]	1000 to 10000 nM	< 100 nM
Cc1ccc(S(=O)(=O)n2c(-c3cccc(N4CC(C(=O)O)C4)c3)c(-c3ccsc3C#N)c3cc(C#N)ccc32)cc1 [3/45]	1000 to 10000 nM	100 to 1000 nM
Cc1ccc(S(=O)(=O)n2c(-c3cccc(-c4cc(F)c(CO)c(S(C)(=O)=O)c4)c3)c(-c3ccsc3C#N)c3cc(F)ccc32)cc1 [2/16]	< 100 nM	< 100 nM
Cn1ccc(-c2c(-c3cccc(-c4ccc(C(=O)O)cc4Cl)c3)n(S(=O)(=O)c3ccc(C(F)F)cc3)c3ccc(F)cc23)c1C#N [11/68]	< 100 nM	< 100 nM
O=C(O)c1ccc(-c2cccc(-c3c(-c4ccsc4C(F)F)c4cc(F)ccc4n3S(=O)(=O)c3ccc(Cl)cc3)c2)c(Cl)c1 [11/21]	< 100 nM	< 100 nM
Cc1ccc(S(=O)(=O)n2c(-c3cccc(-c4ccc(C(=O)O)c(C)c4Cl)c3)c(-c3ccsc3C#N)c3cc(F)ccc32)cc1 [12/1]	100 to 1000 nM	< 100 nM
N#Cc1sccc1-c1c(-c2cccc(-c3cc(F)c(C(=O)O)cc3Cl)c2)n(S(=O)(=O)c2ccc(CF)cc2)c2ccc(F)cc12 [11/7]	< 100 nM	< 100 nM
O=C(O)c1ccc(-c2cccc(-c3c(-c4ccccc4C4(F)CNC4)c4cc(F)ccc4n3S(=O)(=O)c3ccc(C(F)F)cc3)c2)c(Cl)c1 [3/61]	100 to 1000 nM	100 to 1000 nM
CC(C)(O)c1ccc(S(=O)(=O)n2c(-c3cccc(-c4ccc(C(=O)O)cc4Cl)c3)c(-c3ccccc3C#N)c3cc(F)ccc32)cc1 [30/16]	1000 to 10000 nM	100 to 1000 nM
Cc1ccc(S(=O)(=O)n2c(-c3cccc(C4CC5(CC(C(=O)O)C5)C4)c3)c(-c3ccsc3C#N)c3cc(F)ccc32)cc1 (stereo not drawn) [3/65]	100 to 1000 nM	< 100 nM
O=C(O)c1ccc(-c2cccc(-c3c(-c4ccsc4C4COC4)c4cc(F)ccc4n3S(=O)(=O)c3ccc(C(F)F)cc3)c2)c(Cl)c1 [3/63]	< 100 nM	< 100 nM
